Laboratory results reported in patent US10301288B2, “Kinase inhibitors” (Topivert Pharma Limited, priority 2013, dated 2019).
Marks after values point to notes of the source that are not given here.

Legend:
B-Raf (V600e) = B-Raf (V600e) (Homo sapiens (Human), UniProt P15056, V600E); experiment: KINOMEscan enzyme binding assay, B-Raf (V600e)
Protocol: Kinase enzyme binding activities of compounds disclosed herein may be determined using a proprietary assay which measures active site-directed competition binding to an immobilized ligand (Fabian, M. A. et al., Nature Biotechnol., 2005, 23:329-336). These assays may be conducted by DiscoverX (formerly Ambit; San Diego, Calif.). The percentage inhibition produced by incubation with a test compound may be calculated relative to the non-inhibited control.

[1] = Analysis of metabolites in hepatocytes; assay type: in vitro ADME, rat, dog, Cynomolgus macaque, human; settings: 10 μM, hepatocytes of four species, 0, 60 and 90 minutes
Protocol: Studies were conducted by BioFocus (Saffron Walden, UK) to determine the metabolic fate of the compound of Example 2 following incubation with rat, dog, Cynomolgus macaque or human hepatocytes.
Sample replicates were pooled prior to analysis.
Potential metabolites were identified using time-of-flight (TOF) and triple quadruple (TQ) mass spectrometers.

[2] = Cryopreserved hepatocyte stability, Cynomolgus macaque; assay type: in vitro ADME; settings: pooled cryopreserved hepatocytes, read-out: Mean intrinsic clearance
Protocol: (§1) Formulae Clint(tissue clearance) mL/min/kg=[0.693/t½ (min)]×[1/microsomal protein concentration mg/mL]×[mg microsomes/g liver]×[g liver/kg body weight] […] The incubations were performed at 37° C. with 100 μL, samples taken from the incubation, at 0, 10, 20, 45 and 90 minutes, and reactions terminated by addition of 100 μL of acetonitrile containing carbamazepine as analytical internal standard. […] Half-life values were calculated from the relationship T1/2 (min)=−0.693/λ • where λ was the slope of the Ln concentration vs time curve. • Standard compounds testosterone, midazolam and 4-methylumbelliferone are included in the assay design.
(§2) Clint(Tissue Clearance) mL/min/kg=[0.693/t½(min)]×[1/hepatocyte concentration (million cells/mL)]×[million cells/g liver]×[g liver/kg body weight] Clint(Hepatic clearance) mL/min/kg=hepatic blood flow×Clint/(hepatic blood flow+Clint) Hepatic extraction ratio(Eh)=Clint(Hepatic clearance) mL/min/kg/hepatic blood flow (mL/min/kg)

[3] = Cryopreserved hepatocyte stability, human; assay type: in vitro ADME; settings: pooled cryopreserved hepatocytes, read-out: Mean intrinsic clearance
Protocol: as §1, §2

PBMCs = experiment: (i) Cell mitosis assay in PBMCs; assay type: cell-based; settings: Homo sapiens, PBMC, 5 μg/mL
Summary of the method: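 Healthy-donor PBMCs (3 million cells per sample) stimulated with 2% PHA for 48 hr, then exposed 20 hr to varying compound concentrations. Demecolcine (0.1 μg/mL) added 2 hr before collection to arrest cells in metaphase; read by flow cytometry gated on lymphocytes.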

[4] = test system: adoptive transfer mouse model; experiment: (D) Adoptive transfer in mice; assay type: in vivo, female SCID mice
Protocol: On Study day 0, female Balb/C mice are terminated and spleens obtained for CD45RB^high cell isolation (Using SCID IBD cell Separation protocol). Approximately 4×10^5 cells/mL CD45RB^high cells are then injected IP (100 μL/mouse) into female SCID animals. On study day 14, mice are weighed and randomized into treatment groups based on body weight. On Day 14 compounds are administered BID, via oral gavage, in a peanut oil vehicle at the dose levels outlined below and a dose volume of 5 mL/kg. Treatment continues until study day 42, at which point the animals are necropsied 4 hours after am administration. The colon length and weight is recorded and used as a secondary endpoint in the study as a measurement of colon oedema. The colon is then divided into six cross-sections, four of which are used for histopathology scoring (primary endpoint) and two are homogenised for cytokine analysis. Data shown is the % inhibition of the induction window between naïve animals and vehicle animals, where higher inhibition implies closer to the non-diseased, naïve, phenotype.

[5] = Hepatic microsomal stability, Cynomolgus macaque; assay type: in vitro ADME; settings: pooled liver microsomes, read-out: Mean intrinsic clearance
Protocol: (§3) • Microsomal stability assays were performed with incubations of test compounds at 0.1 μM (n=2, final DMSO concentration 0.25%), and carried out using pooled human, […], rat and Cynomolgus macaque hepatic microsomes from Xenotech (Lots 1210153, 0810143 and 1110042, respectively) at 0.25 mg protein/mL in the presence of cofactor, NADPH. The incubations were performed at 37° C. with 100 μL aliquots taken from the incubation, at 0, 2, 5, 10 and 20 minutes (and, in the case of Cynomolgus macaque hepatic microsomes, 40 minutes) and reactions terminated by addition of 100 μL of acetonitrile containing carbamazepine as analytical internal standard. […] Half-life values were calculated from the relationship T1/2 (min)=−0.693/λ • where λ was the slope of the Ln concentration vs time curve. • The in vitro intrinsic clearance, Clint (mL/min/kg), was calculated and scaled to hepatic extraction ratios using the following scaling parameters and formulae.
(§4) Formulae Clint(tissue clearance) mL/min/kg=[0.693/t½ (min)]×[1/microsomal protein concentration mg/mL]×[mg microsomes/g liver]×[g liver/kg body weight] […] Half-life values were calculated from the relationship T1/2 (min)=−0.693/λ • where λ was the slope of the Ln concentration vs time curve. • Standard compounds testosterone, midazolam and 4-methylumbelliferone are included in the assay design.

hERG = hERG (Homo sapiens (Human), UniProt Q12809); experiment: hERG inhibition, IonWorks patch clamp; assay type: cell-based
hERG, sequence (Q12809 whole entry): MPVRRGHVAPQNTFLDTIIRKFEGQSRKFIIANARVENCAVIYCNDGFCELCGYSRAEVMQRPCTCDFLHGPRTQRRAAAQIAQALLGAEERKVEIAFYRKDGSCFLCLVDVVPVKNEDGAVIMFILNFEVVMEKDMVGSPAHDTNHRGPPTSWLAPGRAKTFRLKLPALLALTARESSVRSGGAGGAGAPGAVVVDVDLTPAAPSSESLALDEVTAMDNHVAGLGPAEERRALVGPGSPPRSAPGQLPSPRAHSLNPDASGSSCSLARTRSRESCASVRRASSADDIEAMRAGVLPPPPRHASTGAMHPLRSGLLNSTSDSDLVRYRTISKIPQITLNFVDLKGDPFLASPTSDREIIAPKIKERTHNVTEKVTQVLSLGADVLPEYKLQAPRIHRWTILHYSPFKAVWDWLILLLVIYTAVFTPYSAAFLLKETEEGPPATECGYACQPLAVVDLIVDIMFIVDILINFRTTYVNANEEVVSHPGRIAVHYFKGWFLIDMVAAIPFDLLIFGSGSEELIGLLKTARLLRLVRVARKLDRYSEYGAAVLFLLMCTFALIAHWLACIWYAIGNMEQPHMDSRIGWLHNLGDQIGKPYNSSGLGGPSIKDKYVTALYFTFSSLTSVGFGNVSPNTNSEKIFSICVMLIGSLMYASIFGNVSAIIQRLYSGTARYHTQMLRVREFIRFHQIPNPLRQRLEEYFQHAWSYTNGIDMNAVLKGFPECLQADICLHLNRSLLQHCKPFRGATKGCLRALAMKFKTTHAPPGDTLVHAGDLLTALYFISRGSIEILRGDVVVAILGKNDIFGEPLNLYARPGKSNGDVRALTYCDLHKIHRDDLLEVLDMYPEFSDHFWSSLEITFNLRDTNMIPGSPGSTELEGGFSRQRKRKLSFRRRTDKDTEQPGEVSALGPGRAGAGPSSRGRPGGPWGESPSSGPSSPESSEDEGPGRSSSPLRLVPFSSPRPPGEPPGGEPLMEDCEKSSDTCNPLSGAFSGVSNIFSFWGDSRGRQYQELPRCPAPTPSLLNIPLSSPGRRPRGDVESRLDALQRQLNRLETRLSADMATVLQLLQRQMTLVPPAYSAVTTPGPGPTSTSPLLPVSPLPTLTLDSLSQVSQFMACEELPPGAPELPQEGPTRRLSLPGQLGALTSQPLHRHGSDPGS
Protocol: Eight-point concentration curves were generated using serial 3-fold dilutions from the maximum final assay concentration (3 μM). Electrophysiological recordings were made from a Chinese Hamster Lung cell line stably expressing the full length hERG channel Single cell ionic currents were measured in the perforated patch clamp configuration (100 μg/mL) amphotericin) at room temperature (21-23° C.) using an IonWorks Quattro instrument. The internal solution contained (mM): 140 KCl, 1 MgCl2, 1 EGTA, 20 HEPES and was buffered to pH 7.3. The external solution contained (mM):138 NaCl, 2.7 KCl, 0.9 CaCl2, 0.5 MgCl2, 8 Na2HPO4, 1.5 KH2PO4, also buffered to pH 7.3. Cells were clamped at a holding potential of −70 mV for 30 s and then stepped to +40 mV for 1 s. This was followed by a hyperpolarising step of 1 s to −30 mV to evoke the hERG tail current. This sequence was repeated 5 times at a frequency of 0.25 Hz. Currents were measured from the tail step at the 5th pulse, and referenced to the holding current. Compounds were then incubated for 6-7 minutes prior to a second measurement of the hERG signal using an identical pulse train. Eight-point concentration curves were generated using serial 3-fold dilutions from the maximum final assay concentration (3 μM).

[6] = Hepatic microsomal stability, human; assay type: in vitro ADME; settings: pooled liver microsomes, read-out: Mean intrinsic clearance
Protocol: as §3, §4

B-Raf (V600e), sequence (P15056 whole entry V600E): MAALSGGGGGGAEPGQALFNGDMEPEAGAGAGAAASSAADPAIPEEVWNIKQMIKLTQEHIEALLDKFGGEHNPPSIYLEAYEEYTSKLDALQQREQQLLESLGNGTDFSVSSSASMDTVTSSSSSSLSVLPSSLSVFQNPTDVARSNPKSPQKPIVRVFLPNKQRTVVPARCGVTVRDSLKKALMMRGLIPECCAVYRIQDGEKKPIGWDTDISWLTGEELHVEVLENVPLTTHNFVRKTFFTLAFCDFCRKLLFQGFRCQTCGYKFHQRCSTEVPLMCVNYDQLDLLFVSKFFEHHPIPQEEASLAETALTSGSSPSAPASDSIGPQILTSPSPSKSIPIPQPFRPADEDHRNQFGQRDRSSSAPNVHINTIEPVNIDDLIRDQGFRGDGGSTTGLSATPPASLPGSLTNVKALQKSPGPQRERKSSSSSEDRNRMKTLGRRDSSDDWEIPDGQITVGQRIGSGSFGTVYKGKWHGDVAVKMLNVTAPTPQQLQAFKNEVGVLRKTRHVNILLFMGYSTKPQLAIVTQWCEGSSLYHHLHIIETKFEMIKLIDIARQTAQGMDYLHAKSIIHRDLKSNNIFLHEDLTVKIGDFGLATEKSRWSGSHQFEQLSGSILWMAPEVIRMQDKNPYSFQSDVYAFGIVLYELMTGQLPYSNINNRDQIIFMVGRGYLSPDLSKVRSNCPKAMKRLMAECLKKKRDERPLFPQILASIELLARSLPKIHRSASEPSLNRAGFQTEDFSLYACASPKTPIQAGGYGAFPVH

## C#Cc1cc(Nc2nccc(Oc3ccc(NC(=O)Nc4cc(C(C)(C)C)nn4-c4ccc(C)cc4)c4ccccc34)n2)cc(C(=O)NCCOCCOCCOC)c1 [Example 2, 3-((4-((4-(3-(3-(tert-Butyl)-1-(p-tolyl)-1H-pyrazol-5-yl)ureido)naphthalen-1-yl)oxy)pyrimidin-2-yl)amino)-5-ethynyl-N-(2-(2-(2-methoxyethoxy)ethoxy)ethyl)-benzamide]
B-Raf (V600e)
  effect on the binding of B-Raf (V600e) to its standard ligand: did not have any effect
[1]
  total metabolites identified in all studies: nine
[2]
  hepatocyte CLint at 0.1 μM: 43 µL/min/1e6 cells
[3]
  hepatocyte CLint at 0.1 μM: 37 µL/min/1e6 cells
PBMCs
  inhibition at 5 µg/mL: 18.7%
[4]; 0.04 mg/kg BID oral
  % Inhibition of colon weight:length: 25%#
  % inhibition of IL-8 release: 34%#
  % inhibition of overall histopathology score: 2%
[4]; 0.2 mg/kg BID oral
  % Inhibition of colon weight:length: 23%
  % inhibition of IL-8 release: 39%
  % inhibition of overall histopathology score: 5%
[4]; 1 mg/kg BID oral
  % Inhibition of colon weight:length: 43%#
  % inhibition of IL-8 release: 36%#
  % inhibition of overall histopathology score: 33%
[4]; 5 mg/kg BID oral
  % Inhibition of colon weight:length: 61%*
  % inhibition of IL-8 release: 90%#
  % inhibition of overall histopathology score: 46%
[5]
  microsomal CLint at 0.1 μM: 445 µL/min/mg
hERG
  IC50: > 3 µM
hERG; human, pH 7.3, 3 μM, read-out: inhibition of the hERG channel
  inhibition at 3 µM: 0%
[6]
  microsomal CLint at 0.1 μM: > 554 µL/min/mg
